The values that follow come from publication PMC3901262 (Investigational new drugs, 2013).

A short description of series [1]: Plasma pharmacokinetics of vorinostat and metabolites. The series is classed as in vivo, human. As to conditions: for Cmax / Tmax / AUC (0-infinity) / T1/2 / AUC / Cl/F: plasma; for AUC: Mean AUC.
Series [2] relates to patients with advanced solid tumors. The series is described as follows: Phase I dose escalation: toxicity, DLT and MTD. It is filed as in vivo, human.
For a further series, the system named is refractory NSCLC. As to conditions: single agent; ref [36]; cited from earlier work.
Setting [3] is: C1D1, vorinostat 400 mg oral alone (single dose).
Setting [4] is: C1D2, vorinostat 400 mg oral + bortezomib.
[5] abbreviates: C1D12, vorinostat 400 mg oral steady state, with bortezomib.

In general, Cmax refers to the peak of the concentration-time curve. For orientation: Tmax means the time at which the peak concentration occurs. By AUC is commonly meant concentration integrated over time.

In the case of `O=C(O)CCC(=O)Nc1ccccc1` [Vorinostat acid, 4-anilino-4-oxobutanoic acid], the “mean baseline plasma concentration” value in series [1] (Day 2, before vorinostat dose) turned out to be 130 ± 68 ng/mL. In series [1] (setting [3]), the peak concentration (Cmax) is 815 ± 282 ng/mL and the Tmax came to 2.8 ± 1.4 h.
As to `O=C(CCCCCCC(=O)Nc1ccccc1)NO[C@@H]1O[C@H](C(=O)O)[C@@H](O)[C@H](O)[C@H]1O` [Vorinostat glucuronide, vorinostat glucuronide], in series [1] (setting [3]), the “AUC (0-infinity)” value was found to be 4843 ± 3034 ng·h/mL, the peak concentration (Cmax) was 1153 ± 922 ng/mL, the T1/2 came out at 1.9 ± 1.4 h and the Tmax came out at 1.9 ± 1.0 h. Also, in series [1] (setting [4]), the “AUC (0-infinity)” value is 5283 ± 2915 ng·h/mL, the Cmax amounted to 1225 ± 496 ng/mL, the T1/2 was determined as 1.6 ± 0.5 h and the Tmax is 3.2 ± 1.8 h. In series [1] (setting [5]), the “AUC (0-infinity)” value was determined as 4169 ± 1548 ng·h/mL, the Cmax came to 849 ± 479 ng/mL, the T1/2 was found to be 2.0 ± 0.8 h and the time to peak (Tmax) amounted to 2.0 ± 1.0 h.
Regarding `O=C(CCCCCCC(=O)Nc1ccccc1)NO` [vorinostat, suberoylanilide hydroxamic acid], the “MTD, vorinostat” value in series [2] (orally daily days 1-14 of 21-day cycle, with bortezomib) amounted to 400 mg. In series [1] (all days of treatment, p < 0.05), the “AUC and Cmax in individuals experiencing a DLT compared with no DLT” value is recorded as “significantly higher”. Also, the “AUC and Cmax on day 12 compared with day 1” value in series [1] (cycle 1, steady state vs single dose, p < 0.05) is “significantly higher”. The “day 1 compared with day 2 plasma concentrations (influence of bortezomib)” value in series [1] (cycle 1, vorinostat alone vs vorinostat + bortezomib) is reported as “no difference”. Besides, the Cmax in series [1] (human, oral, 400 mg, Cmax, C1D1, patients with DLT (3)) is 551 ± 174 ng/mL; in series [1] (human, oral, Cmax, C1D2, patients with DLT (3)) it was 675 ± 363 ng/mL; in series [1] (human, oral, Cmax, C1D12, patient with DLT (1)) it was 905 ng/mL; in series [1] (human, oral, Cmax, C1D12, patients with No DLT (13)) it was 448 ± 314 ng/mL. Besides, the AUC was 1450 ± 277 ng·h/mL in series [1] (human, oral, 400 mg, C1D1, patients with DLT (3)); 999 ± 438 ng·h/mL in series [1] (human, oral, 400 mg, C1D1, patients with No DLT (16)); 1790 ± 436 ng·h/mL in series [1] (human, oral, C1D2, patients with DLT (3)); 983 ± 418 ng·h/mL in series [1] (human, oral, C1D2, patients with No DLT (16)); 2230 ng·h/mL in series [1] (human, oral, C1D12, patient with DLT (1)); 1410 ± 962 ng·h/mL in series [1] (human, oral, C1D12, patients with No DLT (13)). The results for the Cl/F in series [1] (setting [3]), in series [1] (setting [4]) and in series [1] (setting [5]) were 6.4 ± 3.2 L/min, 11 ± 4.1 L/min and 13 ± 3.3 L/min, respectively. For the same molecule, the objective antitumor activity entry in the series with refractory NSCLC is reported as “no objective antitumor activity”.
Consider `CC(C)C[C@H](NC(=O)[C@H](Cc1ccccc1)NC(=O)c1cnccn1)B(O)O` [bortezomib], for which, in series [2] (IV days 1, 4, 8, 11 of 21-day cycle, with vorinostat 400 mg), the “MTD, bortezomib” value came out at 1.3 mg/m^2.
